# Earlier results in patent US7879572B2, “Regulation of F1-ATPase beta subunit cellular location” (Board of Supervisors of Louisiana State University And …, priority 2004, dated 2011).
# Legend:
# [1] = system: islet cells; settings: 8-Br-cAMP 1 mM, independent of extracellular Ca2+
smiles,measurement,setting,value
Nc1ncnc2c1nc(Br)n2[C@@H]1O[C@@H]2COP(=O)(O)O[C@H]2[C@H]1O [8-Br-cAMP],effect on enterostatin inhibition of insulin secretion,[1],blocked
"Oc1ccc2c3c1O[C@H]1c4[nH]c5c(c4C[C@@]4(O)[C@@H](C2)N(CC2CC2)CC[C@]314)C[C@@]1(O)[C@H]2Cc3ccc(O)c4c3[C@@]1(CCN2CC1CC1)[C@H]5O4 [nor-Binaltorphamine (BNI), nor-Binaltorphamine]",selective fat intake,kappa-opioidergic antagonist,mimicked the effect of enterostatin
NCCc1c[nH]c2ccc(O)cc12 [serotonin],dietary fat intake,injections into the PVN,inhibited dietary fat intake
